From PMC5748754, “Elucidating the Skin Delivery of Aglycone and Glycoside Flavonoids: How the Structures Affect Cutaneous Absorption” (Nutrients, 2017)
≈ marks a conversion by molar mass, not a printed value. Where “and” joins values, the source holds several entries; their conditions need not be identical. Equal values may be shown once. Entries after “also recorded” stand apart in the source; their conditions may differ.

Assays:
[1] = tested on: fMLF-activated human neutrophils (O2•– release); assay: Superoxide anion (O2•–) inhibition in fMLF-activated human neutrophils; format: cell-based; details: flavonoids at 3 µM, fMLF/cytochalasin B-activated human neutrophils; for inhibition at 3 µM: Homo sapiens, Neutrophil
Source text: (§1) The protocol was approved by the Institutional Review Board at Chang Gung Memorial Hospital, and written informed consent was obtained from all volunteers (201600500B0C101). Whole blood was withdrawn from healthy volunteers between 20 and 30 years of age. Human neutrophils were isolated using a typical method of dextran sedimentation prior to centrifugation in a Ficoll-Hypaque gradient and hypotonic lysis of erythrocytes. The granulocyte layer was harvested and suspended in calcium-free HBSS at pH 7.4, which was maintained at 4 °C until use.
(§2) The reduction of ferricytochrome c was utilized for measuring the superoxide anion (O2^•–) release from the neutrophils. The human neutrophils (6 × 10^5 cells/mL) were incubated with 0.5 mg/mL ferricytochrome c and 1 mM CaCl2 at 37 °C, and were then treated with flavonoids (3 µM) in DMSO for 10 min. Neutrophils were stimulated by adding 0.1 µM fMLF with cytochalasin B (1 µg/mL). The reduction of ferricytochrome c was monitored by the absorbance at 550 nm using a U3010 ultraviolet/visible spectrophotometer (Hitachi, Tokyo, Japan). The human neutrophils were equilibrated with an elastase substrate (MeO-Suc-Ala-Ala-Pro-Val-p-nitroanilide, 100 µM) at 37 °C for 2 min. Flavonoids at a concentration of 3 µM were added into the neutrophil suspension for 10 min. The cells were activated by fMLF and cytochalasin B for a further 10 min. Elastase release was detected by measuring the change of absorbance at 405 nm.

[2] = tested on: fMLF-activated human neutrophils (elastase release); assay: Elastase release inhibition in fMLF-activated human neutrophils; format: cell-based; details: flavonoids at 3 µM, fMLF/cytochalasin B-activated human neutrophils; for inhibition at 3 µM: Neutrophil
Source text: as §1, §2

[3] = Franz cell skin deposition in SC-disrupted nude mouse skin; format: in vitro ADME; details: 6 mM; for Skin deposition, fold versus intact skin (SC-stripping) / skin deposition after the SC's removal: SC-stripped nude mouse skin
Method: The full-thickness dorsal skin of the nude mouse was excised after sacrifice. The SC-stripped skin was obtained by stripping the skin surface 20 times with adhesive tape (Scotch®, 3M, Maplewood, MN, USA). The delipidized skin was achieved by incubating the skin surface onto a chloroform/methanol solution (2:1) for 2 h. To prepare the desebumed skin, the SC side of the skin was washed with cold hexane (4 °C) five times, based on the procedure of the previous study. The skin’s surface was then treated with a 40% ethanol/water solution for 2 h, a process that successfully denatured the skin’s proteins.
(§3) The cutaneous absorption of flavonoids was assessed using a Franz diffusion cell system. The excised animal skin or cellulose membrane was mounted between the donor and receptor compartments with the SC facing up toward the donor. The receptor was filled with 30% ethanol/pH 7.4 buffer and placed on a magnetic stirring plate. The effective permeation area of the cell was 0.785 cm^2. The stirring rate and temperature of the receptor were 600 rpm and 37 °C, respectively. Saturated solution or a 6 mM flavonoid suspension was prepared in 20% PEG400/pH 7.4 buffer to be loaded into the donor compartment. A 300-µL aliquot in the receptor was collected at determined durations, followed by an immediate replacement with fresh receptor medium. The amount of flavonoid in the receptor was determined by HPLC. The skin was removed from the cell after a 24-h application. After being washed with water, the skin sample was weighed and positioned in a vial with 1 mL methanol. MagNA Lyser (Roche) was used to homogenize the skin. The homogenate was centrifuged at 10,000× g for 10 min. The supernatant was analyzed by HPLC to quantify the flavonoid deposition in the skin reservoir.

[4] = Saturated solubility in 20% PEG400/pH 7.4 buffer; format: physicochemical; details: for solubility at 2 h: aqueous with cosolvent or surfactant or cyclodextrin, thermodynamic from solid, 20% PEG400/pH 7.4 buffer, 37 °C
Method: The suspension was then centrifuged at 10,000× g for 10 min. The supernatant was filtered across the polyvinylidene fluoride membrane with a pore size of 0.45 µm. The resulting supernatant was analyzed by HPLC to record the solubility (mM).

[5] = In vitro Franz cell skin absorption, nude mouse skin; format: in vitro ADME; details: for S value (skin deposition/flux) / flux / selectivity ratio at 24 h, 6 mM: dose 6 mM; for S value (skin deposition/flux) / flux / S value (CSD/PC): the sentence does not separate nude mouse and pig skin; for selectivity ratio at 24 h, 6 mM / skin deposition: nude mouse skin; for selectivity ratio at 24 h, 6 mM: read-out: S value (dermal/transdermal selectivity index, skin deposition/flux); for skin deposition: equivalent dose 6 mM, 24 h
Method: as §3
In the cutaneous absorption experiment, flavonoid deposition in the skin was estimated as the molar amount per mg of skin (nM/mg). In the case of the skin deposition from the saturated solution, the calibrated skin deposition (CSD) was measured as flavonoid deposition divided by the applied dose (saturated solubility). The flux (nM/cm^2/h) was estimated by the slope of the penetrated amount–time curve. The permeability coefficient (PC) was calculated from the flux divided by the saturated solubility of the flavonoids. The dermal/transdermal selectivity index (S value) was calculated using an equation of skin deposition/flux (for equivalent dose application) or CSD/PC (for saturated dose application).

[6] = Capacity factor (log K') by HPLC; format: physicochemical; details: HPLC C18, methanol/pH 2 phosphate buffer 1:1
Method: The HPLC setup for the calculation of log K’ was an HPLC system (7-series, Hitachi, Tokyo, Japan) with a LiChrospher® C18 column (200 × 4.6 mm, Merck, Darmstadt, Germany). The mobile phase consisted of a mixture of methanol and pH 2 phosphate buffer solution (1:1). The flow rate and wavelength for determination were 1 mL/min (L-7110 pump) and 256 nm (L-7455 diode array detector), respectively. The retention times of flavonoids were detected, and the log K’ was computed as log [(tr − t0)/t0], where tr and t0 were the retention time of the flavonoid and the nonretained solvent peak, respectively.

[7] = Partition coefficient (log P), n-octanol/water; format: physicochemical; details: 37 °C
Method: Flavonoids in methanol (0.5 mg/mL) were pipetted into a tube at a volume of 1 mL. Methanol was then evaporated under vacuum. In the amount of 1 mL of each, n-Octanol and water were incorporated into the tube. After being shaken for 24 h at 37 °C, the tube was centrifugated at 10,000× g for 10 min. The flavonoid content in both phases was analyzed by HPLC. The log P was calculated as log (flavonoid content in n-octanol/flavonoid content in water).

[8] = In vivo cutaneous tolerance (TEWL, histology) on nude mouse back; details: 6 mM topically daily for 7 days; for histology: SC layers: H&E, versus vehicle control; for ΔTEWL (treated skin minus aqueous vehicle control): nude mouse back
Method: The 20% PEG400/pH 7.4 buffer loaded with flavonoids at 6 mM was topically applied daily (0.6 mL) on the nude mouse back for 7 days. The flavonoid-containing vehicle was replaced with a new one each day. After removal of the vehicle, the treated skin region was evaluated by Tewameter TM300 (Courage and Khazaka, Köln, Germany) to determine the transepidermal water loss (TEWL). Stained by hematoxylin and eosin (H&E), the treated skin was excised for histological examination after a 7-day flavonoid application.

[9] = In vitro Franz cell skin absorption, pig skin; format: in vitro ADME; details: read-out: S value (dermal/transdermal selectivity index, skin deposition/flux)
Method: as §3, with “After being washed with water, the skin sample was weighed and positioned in a vial with 1 mL methanol. MagNA Lyser (Roche) was used to homogenize the skin. The homogenate was centrifuged at 10,000× g for 10 min.” left out
In the cutaneous absorption experiment, flavonoid deposition in the skin was estimated as the molar amount per mg of skin (nM/mg). In the case of the skin deposition from the saturated solution, the calibrated skin deposition (CSD) was measured as flavonoid deposition divided by the applied dose (saturated solubility). […] The permeability coefficient (PC) was calculated from the flux divided by the saturated solubility of the flavonoids. […]

[10] = saturated solubility dose, skin type not separated

With Naringin the “O2^•– Inhibition” value [1] was 21.51 ± 2.53% and the “Elastase Inhibition” value [2] was 13.89 ± 9.67%.
For O=c1c(O)c(-c2cc(O)c(O)c(O)c2)oc2cc(O)cc(O)c12 [Myricetin], the “Skin deposition, fold versus intact skin (SC-stripping)” value [3] was > 30 x, the “skin deposition after the SC's removal” value [3] was 0.4 nM/mg and the solubility at 2 h [4] was 530 ± 10 µM (≈ 169 µg/mL). The “S value (skin deposition/flux)” value [5] was “∞”, the flux [5] was “near zero” and the “permeability coefficient (PC)” value [5, 10] was “neglected”. The “S value (CSD/PC)” value ([5]; saturated solubility dose) was “infinity”, the “log K’” value [6] was 0.34 and the inhibition at 3 µM [1] was 42.1 ± 6.22%. It also gave a logP at 24 h [7] of 3.18 ± 0.07 and an inhibition at 3 µM [2] of 16.8 ± 4.76%.
With O=c1c(O)c(-c2ccc(O)cc2)oc2cc(O)cc(O)c12 [Kaempferol] the solubility at 2 h [4] was 190 ± 4.7 µM (≈ 54.4 µg/mL), the selectivity ratio at 24 h, 6 mM [5] was 2.7 and the skin deposition [5] was 0.11 nM/mg. For the same molecule, the “permeability coefficient (PC)” value [5, 10] was “neglected”, the “S value (CSD/PC)” value ([5]; saturated solubility dose) was “infinity” and the “histology: SC layers” value [8] was “SC layers could be recovered”. For the same molecule, the “ΔTEWL (treated skin minus aqueous vehicle control)” value [8] was “reduced TEWL as compared to the vehicle control; also recorded: alleviated ΔTEWL” and the selectivity ratio at 24 h, 6 mM [9] was 1.5.
For C[C@@H]1O[C@@H](OC[C@H]2O[C@@H](Oc3c(-c4ccc(O)c(O)c4)oc4cc(O)cc(O)c4c3=O)[C@H](O)[C@@H](O)[C@@H]2O)[C@H](O)[C@H](O)[C@H]1O [Rutin], the solubility at 2 h [4] was 1840 ± 40 µM (≈ 1120 µg/mL), the selectivity ratio at 24 h, 6 mM [5] was 1.3 and the “log K’” value [6] was 0.24. The inhibition at 3 µM [1] was 33.9 ± 8.67%, the selectivity ratio at 24 h, 6 mM [9] was 0.4 and the inhibition at 3 µM [2] was 13.2 ± 3.39%.
With Naringenin the “O2^•– Inhibition” value ([1]; 3 µM) was 19.72 ± 8.23%, the “O2^•– Inhibition” value ([1]; listed as naringenin, 3 µM) was 20% and the “Elastase Inhibition” value [2] was 17.97 ± 6.62%.
For O=c1cc(-c2ccccc2)oc2cc(O)c(O)c(O)c12 [Baicalein], the “skin deposition after the SC's removal” value [3] was 0.2 nM/mg, the solubility at 2 h [4] was 7.7 ± 1.9 µM (≈ 2.08 µg/mL) and the “calibrated skin deposition (CSD)” value [5, 10] was “below the quantification limit”. For the same molecule, the “S value (CSD/PC)” value ([5]; saturated solubility dose) was 0, the “log K’” value [6] was 0.73 and the inhibition at 3 µM [1] was 77%. The “O2^•– Inhibition” value ([1]; 3 µM) was 77.48 ± 5.27%, the logP at 24 h [7] was 3.59 ± 0.08 and the inhibition at 3 µM [2] was 12.2 ± 2.15%.
In the case of Quercetin, the “O2^•– Inhibition” value [1] is reported as 26.44 ± 8.07% and the “Elastase Inhibition” value ([2]; 3 µM) is reported as 29% and 28.67 ± 8.51%.
With O=C1C[C@@H](c2ccc(O)cc2)Oc2cc(O)cc(O)c21 [Naringenin] the “fold more soluble than baicalein” value ([4]; PEG400/pH 7.4 buffer solution) was 470 fold, the solubility at 2 h [4] was 3620 ± 280 µM (≈ 986 µg/mL) and the skin deposition [5] was 0.37 nM/mg. For the same molecule, the “histology: SC layers” value [8] was “SC layers could be recovered”, the “ΔTEWL (treated skin minus aqueous vehicle control)” value [8] was “reduced TEWL as compared to the vehicle control” and the “ΔTEWL (treated skin minus aqueous vehicle control)” value ([8]; listed as naringenin) was “alleviated ΔTEWL”.
For Kaempferol, the “O2^•– Inhibition” value [1] was 26.49 ± 8.41% and the “Elastase Inhibition” value [2] was 18.11 ± 9.01%.
With O=c1c(O)c(-c2ccc(O)c(O)c2)oc2cc(O)cc(O)c12 [Quercetin] the “Skin deposition, fold versus intact skin (SC-stripping)” value [3] was > 30 x, the “skin deposition after the SC's removal” value [3] was 1.2 nM/mg and the “Skin deposition, fold versus intact skin (Protein removal)” value ([3]; deproteinized nude mouse skin) was “failed to change”. The solubility at 2 h [4] was 380 ± 2.5 µM (≈ 115 µg/mL), the “S value (skin deposition/flux)” value [5] was “∞” and the flux [5] was “near zero”. For the same molecule, the “permeability coefficient (PC)” value [5, 10] was “neglected” and the “S value (CSD/PC)” value ([5]; saturated solubility dose) was “infinity”.
For O=C(O)[C@H]1O[C@@H](Oc2cc3oc(-c4ccccc4)cc(=O)c3c(O)c2O)[C@H](O)[C@@H](O)[C@@H]1O [Baicalin], the solubility at 2 h [4] was 5320 ± 150 µM (≈ 2370 µg/mL), the “log K’” value [6] was 0.42 and the inhibition at 3 µM [1] was 77%. For the same molecule, the “O2^•– Inhibition” value ([1]; 3 µM) was 75.73 ± 6.21%, the “O2^•– Inhibition” value ([1]; listed as baicalin, 3 µM) was 76% and the logP at 24 h [7] was 0.89 ± 0.02. For the same molecule, the inhibition at 3 µM [2] was 0% and the “Elastase Inhibition” value [2] was “did not change”.
With C[C@@H]1O[C@@H](O[C@H]2[C@H](Oc3cc(O)c4c(c3)O[C@H](c3ccc(O)cc3)CC4=O)O[C@H](CO)[C@@H](O)[C@@H]2O)[C@H](O)[C@H](O)[C@H]1O [Naringin] the solubility at 2 h [4] was > 20000 µM and the “histology: SC layers” value [8] was “SC layers could be recovered”.
